Experimental data taken from US20250270209A1 (INTERLINE THERAPEUTICS, INC., priority 2022, published 2025).
pIC50: −log10 of the molar value.

Legend:
[1] = target: LRRK2 wild type enzyme (Homo sapiens, UniProt Q5S007); experiment: Biochemical Assay: LRRK2 TR-FRET (LanthaScreen) kinase assay with LRRKtide substrate; conditions: LRRK2 Inhibition, Table 8
Method in brief: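 Human wild-type LRRK2 (3 nM) preincubated 15 min with compound (11-point, 3-fold, top 10 μM), then reacted 120 min at 23 °C with 400 nM LRRKtide and 25 μM ATP, pH 8.0. Stopped with EDTA; Tb-anti-pLRRKtide TR-FRET read after 30 min.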

[2] = target: T1, wild type LRRK2 overexpressed in recombinant HEK-293T cells (Homo sapiens, UniProt Q5S007); experiment: pS935 LRRK2 Cell Assay (HTRF, phospho-LRRK2 Ser935); format: cell-based; conditions: LRRK2 Inhibition, Table 8, 2 hours compound incubation
T1 construct: host or cells: HEK293T (transient transfection with pCMV-LRRK2 WT plasmid)
T1 sequence (Q5S007 whole entry): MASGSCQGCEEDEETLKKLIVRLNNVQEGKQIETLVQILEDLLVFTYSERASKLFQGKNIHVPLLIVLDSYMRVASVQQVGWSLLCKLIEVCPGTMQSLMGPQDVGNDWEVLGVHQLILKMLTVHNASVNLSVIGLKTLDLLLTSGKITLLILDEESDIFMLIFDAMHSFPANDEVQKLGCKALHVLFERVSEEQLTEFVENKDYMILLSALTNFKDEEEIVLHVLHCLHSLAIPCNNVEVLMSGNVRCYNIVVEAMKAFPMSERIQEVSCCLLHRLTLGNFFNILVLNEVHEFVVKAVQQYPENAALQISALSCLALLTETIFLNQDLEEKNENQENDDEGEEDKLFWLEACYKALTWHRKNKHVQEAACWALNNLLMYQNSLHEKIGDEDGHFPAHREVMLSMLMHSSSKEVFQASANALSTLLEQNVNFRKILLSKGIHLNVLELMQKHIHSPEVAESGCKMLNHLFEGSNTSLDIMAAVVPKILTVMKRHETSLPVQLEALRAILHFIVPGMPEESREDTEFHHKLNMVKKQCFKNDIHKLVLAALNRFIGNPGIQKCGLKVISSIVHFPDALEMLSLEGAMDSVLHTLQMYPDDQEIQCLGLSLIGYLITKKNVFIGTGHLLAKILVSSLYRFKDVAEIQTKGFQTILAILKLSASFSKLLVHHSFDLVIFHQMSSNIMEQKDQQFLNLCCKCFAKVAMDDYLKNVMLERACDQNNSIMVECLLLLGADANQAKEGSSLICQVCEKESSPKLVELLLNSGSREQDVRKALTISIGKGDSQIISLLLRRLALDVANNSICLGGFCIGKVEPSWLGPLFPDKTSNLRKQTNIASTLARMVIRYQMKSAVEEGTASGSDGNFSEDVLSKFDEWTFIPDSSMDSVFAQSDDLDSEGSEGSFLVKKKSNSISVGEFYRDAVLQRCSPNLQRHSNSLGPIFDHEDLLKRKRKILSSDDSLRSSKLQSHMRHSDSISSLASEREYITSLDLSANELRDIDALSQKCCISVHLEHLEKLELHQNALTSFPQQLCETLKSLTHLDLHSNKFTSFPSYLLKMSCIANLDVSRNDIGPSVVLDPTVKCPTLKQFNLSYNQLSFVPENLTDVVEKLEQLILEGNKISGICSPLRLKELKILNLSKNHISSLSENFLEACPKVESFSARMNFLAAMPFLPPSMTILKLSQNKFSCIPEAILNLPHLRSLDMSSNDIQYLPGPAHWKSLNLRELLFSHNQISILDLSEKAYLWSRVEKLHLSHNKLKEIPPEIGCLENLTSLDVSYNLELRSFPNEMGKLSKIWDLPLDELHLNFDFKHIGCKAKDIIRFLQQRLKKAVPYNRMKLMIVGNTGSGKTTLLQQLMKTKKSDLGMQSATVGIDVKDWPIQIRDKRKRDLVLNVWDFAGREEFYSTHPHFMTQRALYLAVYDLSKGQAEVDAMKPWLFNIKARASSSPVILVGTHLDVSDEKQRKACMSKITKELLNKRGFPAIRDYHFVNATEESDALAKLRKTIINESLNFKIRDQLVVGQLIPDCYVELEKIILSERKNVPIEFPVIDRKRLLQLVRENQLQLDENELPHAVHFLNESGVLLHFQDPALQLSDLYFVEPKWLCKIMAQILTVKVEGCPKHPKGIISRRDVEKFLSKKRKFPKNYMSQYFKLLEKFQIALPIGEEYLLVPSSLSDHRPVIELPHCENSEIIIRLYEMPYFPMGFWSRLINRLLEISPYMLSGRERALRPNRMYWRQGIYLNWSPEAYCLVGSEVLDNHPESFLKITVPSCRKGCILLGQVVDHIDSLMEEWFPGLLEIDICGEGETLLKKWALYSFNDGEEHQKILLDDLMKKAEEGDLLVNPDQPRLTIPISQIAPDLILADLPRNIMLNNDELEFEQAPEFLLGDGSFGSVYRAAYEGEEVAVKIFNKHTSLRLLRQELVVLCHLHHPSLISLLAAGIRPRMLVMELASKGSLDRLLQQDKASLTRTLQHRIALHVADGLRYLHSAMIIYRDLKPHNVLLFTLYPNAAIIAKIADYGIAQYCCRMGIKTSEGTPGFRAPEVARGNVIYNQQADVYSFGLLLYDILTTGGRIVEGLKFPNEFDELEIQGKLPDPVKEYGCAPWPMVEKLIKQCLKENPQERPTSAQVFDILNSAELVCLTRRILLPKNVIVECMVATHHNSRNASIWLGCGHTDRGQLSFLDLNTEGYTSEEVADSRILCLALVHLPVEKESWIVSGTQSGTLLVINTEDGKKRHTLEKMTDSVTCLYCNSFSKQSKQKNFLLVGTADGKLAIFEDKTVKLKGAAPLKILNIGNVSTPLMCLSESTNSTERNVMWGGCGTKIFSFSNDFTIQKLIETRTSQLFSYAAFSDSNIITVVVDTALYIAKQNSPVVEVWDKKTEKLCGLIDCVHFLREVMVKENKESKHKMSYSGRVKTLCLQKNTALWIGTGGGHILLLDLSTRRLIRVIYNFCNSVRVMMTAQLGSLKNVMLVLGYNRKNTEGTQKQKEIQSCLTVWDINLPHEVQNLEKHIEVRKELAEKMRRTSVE
Method in brief: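 HEK-293T cells transiently transfected with wild-type LRRK2 for 24 h, plated overnight, then treated 2 h at 37° C with compound (top 10 μM, 3-fold, 9 doses, duplicates, 0.2% DMSO). Lysates probed overnight at 23° C by sandwich HTRF for pSer935; 665/615 nm ratio read.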

Chain of LRRK2 wild type enzyme (Q5S007 whole entry): as above

| Structure (SMILES) | pIC50 [1] | pIC50 [2] |
| --- | --- | --- |
| C[C@@H]1C[C@H](n2c(CN3CCCCC3=O)nc3cnc4ccc(C#N)cc4c32)CCO1 [Compound 79, 1-[(2R,4R)-2-methyloxan-4-yl]-2-[(2-oxopiperidin-1-yl)methyl]-1H-imidazo[4,5-c]quinoline-8-carbonitrile] | 7.97 | 6.09 |
| C[C@@H]1C[C@H](n2c(CC(=O)NCC(C)(C)C#N)nc3cnc4ccc(C#N)cc4c32)CCO1 [Compound 239, N-(2-cyano-2-methylpropyl){3-[(2R,4R)-2-methyltetrahydro-2H-pyran-4-yl]-12-cyano-3,5,8-triazatricyclo[7.4.0.0^2,6]trideca-1(9),2(6),4,7,10,12-hexaen-4-yl}acetamide] | 8.88 | 6.77 |
| C[C@@H]1C[C@H](n2c(CC(=O)N3CCCC3)nc3cnc4ccc(C#N)cc4c32)CCO1 [Compound 85, 1-[(2R,4R)-2-methyloxan-4-yl]-2-[2-oxo-2-(pyrrolidin-1-yl)ethyl]-1H-imidazo[4,5-c]quinoline-8-carbonitrile] | 8.29 | 6.38 |
| C[C@@H]1C[C@H](n2c(CC(=O)NC[C@@H]3CCOC3)nc3cnc4ccc(C#N)cc4c32)CCO1 [Compound 173, 2-{8-cyano-1-[(2R,4R)-2-methyloxan-4-yl]-1H-imidazo[4,5-c]quinolin-2-yl}-N-{[(3S)-oxolan-3-yl]methyl}acetamide] | 9.38 | 7.42 |
| C[C@@H]1C[C@H](n2c(CC(=O)Nc3cccnc3)nc3cnc4ccc(C#N)cc4c32)CCO1 [Compound 320, N-3-pyridyl{3-[(2R,4R)-2-methyltetrahydro-2H-pyran-4-yl]-12-cyano-3,5,8-triazatricyclo[7.4.0.0^2,6]trideca-1(9),2(6),4,7,10,12-hexaen-4-yl}acetamide] | 9.24 | 8.20 |
| C[C@@H]1C[C@H](n2c(CC(=O)NC3(CO)CC3)nc3cnc4ccc(C#N)cc4c32)CCO1 [Compound 286, N-1-(hydroxymethyl)cyclopropyl{3-[(2R,4R)-2-methyltetrahydro-2H-pyran-4-yl]-12-cyano-3,5,8-triazatricyclo[7.4.0.0^2,6]trideca-1,4,6,8,10,12-hexaen-4-yl}acetamide] | 8.84 | 6.04 |
| COc1ncccc1NC(=O)Cc1nc2cnc3ccc(C#N)cc3c2n1[C@@H]1CCO[C@H](C)C1 [Compound 318, N-(2-methoxy-3-pyridyl){3-[(2R,4R)-2-methyltetrahydro-2H-pyran-4-yl]-12-cyano-3,5,8-triazatricyclo[7.4.0.0^2,6]trideca-1(9),2(6),4,7,10,12-hexaen-4-yl}acetamide] | 9.30 | 8.69 |
| C[C@@H]1C[C@H](n2c(C3CC(=O)N(c4cnn(C)c4)C3)nc3cnc4ccc(Cl)cc4c32)CCO1 (stereo partly drawn) [Compound 108, 4-{8-chloro-1-[(2R,4R)-2-methyloxan-4-yl]-1H-imidazo[4,5-c]quinolin-2-yl}-1-(1-methyl-1H-pyrazol-4-yl)pyrrolidin-2-one] | 9.01 | 7.37 |
| C[C@@H]1C[C@H](n2c(CC(=O)NCCO)nc3cnc4ccc(Cl)cc4c32)CCO1 [Compound 163, 2-{8-chloro-1-[(2R,4R)-2-methyloxan-4-yl]-1H-imidazo[4,5-c]quinolin-2-yl}-N-(2-hydroxyethyl)acetamide] | 9.17 | 7.36 |
| COc1nccnc1NC(=O)Cc1nc2cnc3ccc(C#N)cc3c2n1[C@@H]1CCO[C@H](C)C1 [Compound 312, N-(3-methoxy-2-pyrazinyl){3-[(2R,4R)-2-methyltetrahydro-2H-pyran-4-yl]-12-cyano-3,5,8-triazatricyclo[7.4.0.0^2,6]trideca-1(9),2(6),4,7,10,12-hexaen-4-yl}acetamide] | 9.24 | 8.25 |
| C[C@@H]1C[C@H](n2c(CC(=O)Nc3cnn(C4COC4)c3)nc3cnc4ccc(C#N)cc4c32)CCO1 [Compound 304, N-[1-(3-oxetanyl)-4-pyrazolyl]{3-[(2R,4R)-2-methyltetrahydro-2H-pyran-4-yl]-12-cyano-3,5,8-triazatricyclo[7.4.0.0^2,6]trideca-1(13),2(6),4,7,9,11-hexaen-4-yl}acetamide] | 9.13 | 6.97 |
| C[C@@H]1C[C@H](n2c(CC(=O)NC3CC=CC3)nc3cnc4ccc(C#N)cc4c32)CCO1 [Compound 302, N-(3-cyclopenten-1-yl){3-[(2R,4R)-2-methyltetrahydro-2H-pyran-4-yl]-12-cyano-3,5,8-triazatricyclo[7.4.0.0^2,6]trideca-1,4,6,8,10,12-hexaen-4-yl}acetamide] | 9.32 | 8.00 |
| C[C@@H]1C[C@H](n2c(CC(=O)Nc3cncnc3O)nc3cnc4ccc(C#N)cc4c32)CCO1 [Compound 211, N-(4-hydroxy-5-pyrimidinyl){3-[(2R,4R)-2-methyltetrahydro-2H-pyran-4-yl]-12-cyano-3,5,8-triazatricyclo[7.4.0.0^2,6]trideca-1,4,6,8,10,12-hexaen-4-yl}acetamide] | 9.32 | 5.77 |
| C[C@@H]1C[C@H](n2c(CC(=O)NC3CC3)nc3cnc4ccc(C#N)cc4c32)CCO1 [Compound 5, 2-{8-cyano-1-[(2R,4R)-2-methyloxan-4-yl]-1H-imidazo[4,5-c]quinolin-2-yl}-N-cyclopropylacetamide] | 9.23 | 7.45 |
| C[C@@H]1C[C@H](n2c(CNC(=O)c3ccccn3)nc3cnc4ccc(C#N)cc4c32)CCO1 [Compound 19, N-({8-cyano-1-[(2R,4R)-2-methyloxan-4-yl]-1H-imidazo[4,5-c]quinolin-2-yl}methyl)pyridine-2-carboxamide] | 9.23 | 7.64 |
| COCC1(CNC(=O)Cc2nc3cnc4ccc(C#N)cc4c3n2[C@@H]2CCO[C@H](C)C2)CC1 [Compound 267, N-[1-(methoxymethyl)cyclopropyl]methyl{3-[(2R,4R)-2-methyltetrahydro-2H-pyran-4-yl]-12-cyano-3,5,8-triazatricyclo[7.4.0.0^2,6]trideca-1,4,6,8,10,12-hexaen-4-yl}acetamide] | 9.38 | 8.12 |
| CC(=O)N1CC[C@@H](c2nc3cnc4ccc(C#N)cc4c3n2[C@@H]2CCO[C@H](C)C2)C1 [Compound 42, 2-[(3R)-1-acetylpyrrolidin-3-yl]-1-[(2R,4R)-2-methyloxan-4-yl]-1H-imidazo[4,5-c]quinoline-8-carbonitrile] | 7.89 | 5.68 |
| C[C@@H]1C[C@H](n2c([C@H]3CCN(S(C)(=O)=O)C3)nc3cnc4ccc(C#N)cc4c32)CCO1 [Compound 39, 2-[(3S)-1-methanesulfonylpyrrolidin-3-yl]-1-[(2R,4R)-2-methyloxan-4-yl]-1H-imidazo[4,5-c]quinoline-8-carbonitrile] | 8.28 | 6.05 |
| C[C@@H]1C[C@H](n2c(CNS(=O)(=O)C3CC3)nc3cnc4ccc(C#N)cc4c32)CCO1 [Compound 22, N-({8-cyano-1-[(2R,4R)-2-methyloxan-4-yl]-1H-imidazo[4,5-c]quinolin-2-yl}methyl)cyclopropanesulfonamide] | 8.17 | 6.27 |
| C[C@@H]1C[C@H](n2c(CC(=O)NC3CC3)nc3cnc4ccc(Cl)cc4c32)CCO1 [Compound 183, 2-{8-chloro-1-[(2R,4R)-2-methyloxan-4-yl]-1H-imidazo[4,5-c]quinolin-2-yl}-N-cyclopropylacetamide] | 9.59 | 7.95 |
| C[C@@H]1C[C@H](n2c(CC(=O)Nc3cnc(C(F)F)nc3)nc3cnc4ccc(C#N)cc4c32)CCO1 [Compound 254, N-[2-(difluoromethyl)-5-pyrimidinyl]{3-[(2R,4R)-2-methyltetrahydro-2H-pyran-4-yl]-12-cyano-3,5,8-triazatricyclo[7.4.0.0^2,6]trideca-1(9),2(6),4,7,10,12-hexaen-4-yl}acetamide] | 9.26 | 7.56 |
| C[C@@H]1C[C@H](n2c(CC(=O)NCc3cccnn3)nc3cnc4ccc(Cl)cc4c32)CCO1 [Compound 148, 2-{8-chloro-1-[(2R,4R)-2-methyloxan-4-yl]-1H-imidazo[4,5-c]quinolin-2-yl}-N-[(pyridazin-3-yl)methyl]acetamide] | 9.42 | 8.35 |
| CC(=O)N1CCC(c2nc3cnc4ccc(C#N)cc4c3n2[C@@H]2CCO[C@H](C)C2)CC1 [Compound 116, 2-(1-acetylpiperidin-4-yl)-1-[(2R,4R)-2-methyloxan-4-yl]-1H-imidazo[4,5-c]quinoline-8-carbonitrile] | 8.90 | 6.46 |
| C[C@@H]1C[C@H](n2c(CC(=O)Nc3cc(C(C)(C)F)no3)nc3cnc4ccc(C#N)cc4c32)CCO1 [Compound 341, N-[3-(1-fluoro-1-methylethyl)-5-isoxazolyl]{3-[(2R,4R)-2-methyltetrahydro-2H-pyran-4-yl]-12-cyano-3,5,8-triazatricyclo[7.4.0.0^2,6]trideca-1(9),2(6),4,7,10,12-hexaen-4-yl}acetamide] | 9.37 | 8.09 |
| C[C@@H]1C[C@H](n2c(CC(=O)NCC3CCC3)nc3cnc4ccc(C#N)cc4c32)CCO1 [Compound 89, 2-{8-cyano-1-[(2R,4R)-2-methyloxan-4-yl]-1H-imidazo[4,5-c]quinolin-2-yl}-N-(cyclobutylmethyl)acetamide] | 9.23 | 7.47 |
| Cc1ncnc(C)c1NC(=O)Cc1nc2cnc3ccc(Cl)cc3c2n1[C@@H]1CCO[C@H](C)C1 [Compound 207, N-(4,6-dimethyl-5-pyrimidinyl){3-[(2R,4R)-2-methyltetrahydro-2H-pyran-4-yl]-12-chloro-3,5,8-triazatricyclo[7.4.0.0^2,6]trideca-1,4,6,8,10,12-hexaen-4-yl}acetamide] | 9.48 | 8.12 |
